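Tested at 5 concentrations; 48 h exposure; 96-well plates; endpoints linearly interpolated, else capped at highest concentration. TGI: total growth inhibition.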
How the values were obtained:
Experiment in all cases: growth of human tumour cells (NCI), 48 h
786-0 renal = tested on: 786-0 renal
A549 NSCLC = tested on: A549 NSCLC
ACHN renal = tested on: ACHN renal
BT-549 breast = tested on: BT-549 breast
CAKI-1 renal = tested on: CAKI-1 renal
CCRF-CEM leukemia = tested on: CCRF-CEM leukemia
EKVX NSCLC = tested on: EKVX NSCLC
HCC-2998 colon = tested on: HCC-2998 colon
HCT-116 colon = tested on: HCT-116 colon
HCT-15 colon = tested on: HCT-15 colon
HOP-62 NSCLC = tested on: HOP-62 NSCLC
HS 578T breast = tested on: HS 578T breast
HT29 colon = tested on: HT29 colon
IGROV1 ovarian = tested on: IGROV1 ovarian
K-562 leukemia = tested on: K-562 leukemia
KM12 colon = tested on: KM12 colon
LOX IMVI melanoma = tested on: LOX IMVI melanoma
M14 melanoma = tested on: M14 melanoma
MALME-3M melanoma = tested on: MALME-3M melanoma
MDA-MB-231 breast = tested on: MDA-MB-231 breast
MDA-MB-435 = tested on: MDA-MB-435
MDA-N = tested on: MDA-N
MOLT-4 leukemia = tested on: MOLT-4 leukemia
NCI-H226 lung = tested on: NCI-H226 lung
NCI-H23 lung = tested on: NCI-H23 lung
NCI-H460 lung = tested on: NCI-H460 lung
NCI-H522 lung = tested on: NCI-H522 lung
NCI/ADR-RES ovarian = tested on: NCI/ADR-RES ovarian
OVCAR-3 ovarian = tested on: OVCAR-3 ovarian
OVCAR-4 ovarian = tested on: OVCAR-4 ovarian
OVCAR-5 ovarian = tested on: OVCAR-5 ovarian
OVCAR-8 ovarian = tested on: OVCAR-8 ovarian
PC-3 prostate = tested on: PC-3 prostate
RPMI-8226 leukemia = tested on: RPMI-8226 leukemia
SF-268 CNS = tested on: SF-268 CNS
SF-295 CNS = tested on: SF-295 CNS
SF-539 CNS = tested on: SF-539 CNS
SK-MEL-2 melanoma = tested on: SK-MEL-2 melanoma
SK-MEL-28 melanoma = tested on: SK-MEL-28 melanoma
SK-MEL-5 melanoma = tested on: SK-MEL-5 melanoma
SK-OV-3 ovarian = tested on: SK-OV-3 ovarian
SN12C renal = tested on: SN12C renal
SNB-19 CNS = tested on: SNB-19 CNS
SNB-75 CNS = tested on: SNB-75 CNS
SR leukemia = tested on: SR leukemia
SW-620 colon = tested on: SW-620 colon
TK-10 renal = tested on: TK-10 renal
U251 CNS = tested on: U251 CNS
UACC-257 melanoma = tested on: UACC-257 melanoma
UACC-62 melanoma = tested on: UACC-62 melanoma
UO-31 renal = tested on: UO-31 renal

Measured: TGI

Cc1cc(C)c(C2CC(O)C(CO)O2)cc1C (stereo unspecified)
> 100 µM: all assays above

Reference: PubChem BioAssay (NCI)
